# In PMC8930067 (Cardiovascular Research, 2021):
# Where a name gives a salt, the structure may show the parent alone.
# Target: SERCA2a (Rattus norvegicus, UniProt P11507)
# Assay: […]-ATP hydrolysis
# Format: cell-based
# Conditions: read-out: % Vmax at 500 nmol/L
# SERCA2a, sequence (P11507 1-997 isoform P11507-2): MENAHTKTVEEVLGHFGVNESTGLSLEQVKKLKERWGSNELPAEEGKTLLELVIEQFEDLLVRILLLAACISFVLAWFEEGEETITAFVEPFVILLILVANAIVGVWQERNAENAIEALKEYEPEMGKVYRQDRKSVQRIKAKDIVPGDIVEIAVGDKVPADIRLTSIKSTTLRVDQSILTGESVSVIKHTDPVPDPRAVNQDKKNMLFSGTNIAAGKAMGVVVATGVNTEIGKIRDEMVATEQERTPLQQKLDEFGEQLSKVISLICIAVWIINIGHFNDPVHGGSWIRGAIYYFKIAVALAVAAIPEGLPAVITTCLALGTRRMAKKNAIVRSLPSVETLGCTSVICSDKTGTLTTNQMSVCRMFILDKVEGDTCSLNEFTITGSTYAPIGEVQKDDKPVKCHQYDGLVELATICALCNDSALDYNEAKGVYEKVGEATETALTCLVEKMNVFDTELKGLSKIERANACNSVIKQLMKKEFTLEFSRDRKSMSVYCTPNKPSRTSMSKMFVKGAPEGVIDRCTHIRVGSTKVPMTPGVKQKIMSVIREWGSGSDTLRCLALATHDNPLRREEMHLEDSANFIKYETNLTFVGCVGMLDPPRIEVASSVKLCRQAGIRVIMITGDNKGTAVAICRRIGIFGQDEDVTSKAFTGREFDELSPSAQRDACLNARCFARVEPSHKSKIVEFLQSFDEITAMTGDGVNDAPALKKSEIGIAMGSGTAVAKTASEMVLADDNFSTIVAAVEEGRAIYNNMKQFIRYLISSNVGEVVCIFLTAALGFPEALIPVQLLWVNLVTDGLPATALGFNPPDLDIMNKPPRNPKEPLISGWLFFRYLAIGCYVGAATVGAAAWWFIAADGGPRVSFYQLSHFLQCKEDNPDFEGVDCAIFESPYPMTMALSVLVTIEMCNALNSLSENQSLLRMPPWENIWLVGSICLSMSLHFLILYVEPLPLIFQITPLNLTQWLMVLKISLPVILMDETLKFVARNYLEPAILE
compound,measurement,value
"C[C@]12CCC(=NOCCN)C[C@@H]1C(=O)C[C@@H]1[C@@H]2CC[C@]2(C)C(=O)CC[C@@H]12 [istaroxime, (E,Z)-3-((2-aminoethoxy)imino)androstane-6,17-dione hydrochloride]",activation at 0.5 µM,25%
